Data on 1 compound can be found in ChEMBL document CHEMBL4842341, “Discovery of IACS-9779 and IACS-70465 as Potent Inhibitors Targeting Indoleamine 2,3-Dioxygenase 1 (IDO1) Apoenzyme” (J Med Chem, 2021).

A short description of series [1]: Drug concentration in tumor of NSG mouse xenografted with human SKOV3 cells at 125 mg/kg, po BID measured after 12 hrs by LC-MS analysis. It is filed as ADME, organism-based, Neoplasm, SK-OV-3. Particulars: read-out: Drug uptake. Background: In xenograft studies the graft and the host belong to different species.
Series [2] is described as follows: Drug concentration in plasma of NSG mouse xenografted with human SKOV3 cells at 125 mg/kg, po BID measured after 12 hrs by LC-MS analysis. It is filed as ADME, organism-based, SK-OV-3.
The nature of series [3]: AUC in rat plasma at 250 mg/kg, po QD administered for 7 days. Format: ADME, organism-based. Details: dose 250 mg/kg, time 7 day.
Series [4] can be described thus: in vivo. Particulars: CD-1, mouse, iv, 0.3 mg/kg.
Series [5] is described as follows: in vivo. Particulars: CD-1, mouse, iv, 0.3 mg/kg. The source holds these as a separate data set.
Series [6] can be described thus: in vivo. Particulars: CD-1, mouse, iv, 0.3 mg/kg. The source holds these as a separate data set.
Series [7] can be described thus: in vivo. The following applies: CD-1, mouse, iv, 0.3 mg/kg. The source holds these as a separate data set.
A short description of series [8]: in vivo. Particulars: CD-1, mouse, po, 10 mg/kg.
Series [9] can be described thus: in vivo. Particulars: CD-1, mouse, po, 10 mg/kg. The source holds these as a separate data set.
Series [10] can be described thus: in vivo. The following applies: NSG, mouse, tumor, po, 125 mg/kg.
The nature of series [11]: in vivo. Particulars: NSG, mouse, plasma, po, 125 mg/kg.
A short description of the next series: in vitro. The following applies: human, liver microsomes.

By AUC is commonly meant the area under the concentration-time curve, a measure of exposure. Read a high AUC as more exposure. As usually defined, the clearance is the volume of plasma or blood freed of the substance per unit of time. A lower clearance goes with inefficient removal. The Vd is the apparent volume that relates the amount in the body to the concentration in plasma or blood. Usually half-life stands for the time needed for the level to fall by half in the phase considered. Low values mean fast loss, high ones slow loss. By AUC(0-inf) is commonly meant total exposure, with the tail of the curve extrapolated. Low values mean low exposure, high ones high exposure. The Cmax is the maximum level reached in the sampled fluid or tissue. One may read the bioavailability as dose-corrected exposure relative to a reference, in per cent. A word on the CLint scaled: it is the capacity of the preparation to metabolise the compound, expressed as a volume cleared per time. A high value points to rapid turnover. Consider `C[C@H](C(=O)Nc1ccc(Cl)cc1)[C@H]1CC[C@@H](c2ccnc3ccc(F)cc32)CC1`, for which the concentration at 12 h in series [1] came out at 610 nM; in [2], 60 nM. In series [3], this compound yielded an exposure (AUC) at 168 h of 95 µM·h. The compound further showed a clearance at 24 h in “in vivo [4]” of 33.3 mL/min/kg. Further, in the series “in vivo [5]”, the Vd at 24 h turned out to be 4.5 L/kg. In “in vivo [6]”, this compound had a half-life at 24 h of 1.57 h. In addition, the total exposure AUC(0-inf) at 24 h in “in vivo [7]” came out at 0.37 µM·h. Moreover, the Cmax at 24 h in “in vivo [8]” came to 4100 nM. The same compound registered a bioavailability at 24 h in the series “in vivo [9]” of 39%. For the same compound, the concentration at 120 h came to 900 nM in the series “in vivo [10]” and 20 nM in the series “in vivo [11]”. For the same compound, the CLint scaled at 0.75 h, 1 µM in “in vitro” amounted to 28 mL/min/kg.
